Reference: patent US10519177B2, “Heterocyclic compounds and uses thereof” (Plexxikon Inc., priority 2013, dated 2019)
Where two headings read alike, the source gives them in different places.

Legend:
BRD4-BD12 (1-477) = BRD4-BD12 (1-477) (Homo sapiens (Human), UniProt O60885); test: Alphascreen binding assay BRD4-BD12; details: BRD4(1 2) H4; read-out: Biochemical activity (IC50 μM) BRD4(1 2) H4
Outline: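 In this competition format, compounds displace a biotinylated tetra-acetyl H4 peptide from E. coli-expressed human BRD4 bromodomain constructs captured on nickel chelate beads. The reaction runs at pH 7.5 with 2 mM DTT and detergent for 1 h at room temperature before a 30 min bead step.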

MV-4-11 cells = test: Oncology cell growth assay MV-4-11 (CellTiter Glo); type: cell-based; details: Homo sapiens, MV4-11, 72 h, read-out: Cell activity (IC50 μM) MV-4-11 3d-Growth
Outline: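 Growth read by CellTiter Glo luminescence after 72 h compound treatment of MLL-AF4-bearing MV-4-11 cells (3000/well). Titration: 8 points, 1:3 steps, maximum 10 μM, 0.2% DMSO final. Data normalized to DMSO wells, four-parameter fit gives pIC50.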

bromodomain = test: at least one of the bromodomain cell assays of Example 57; type: cell-based; details: at least one of the bromodomain cell assays described in Example 57; read-out: IC50 in at least one of the bromodomain cell assays

[2H]C([2H])(C1CCC(F)(F)CC1)n1cc(-c2ccc(C)nc2)c2ncc(-c3c(C)noc3C)cc21 [P-0344, 4-[1-[dideuterio-(4,4-difluorocyclohexyl)methyl]-3-(6-methyl-3-pyridyl)pyrrolo[3,2-b]pyridin-6-yl]-3,5-dimethyl-isoxazole]
IC50 (BRD4-BD12 (1-477)): < 1 µM
IC50 (MV-4-11 cells): < 1 µM
IC50 (bromodomain): < 10000 nM

Cc1noc(C)c1-c1cnc2c(-c3ccc(F)c(C(=O)O)c3)cn(CC3CCC(F)(F)CC3)c2c1 [P-0414, 5-[1-[(4,4-difluorocyclohexyl)methyl]-6-(3,5-dimethylisoxazol-4-yl)pyrrolo[3,2-b]pyridin-3-yl]-2-fluoro-benzoic acid]
IC50 (BRD4-BD12 (1-477)): < 1 µM
IC50 (MV-4-11 cells): < 1 µM
IC50 (bromodomain): < 10000 nM

Cc1noc(C)c1-c1cnc2c(I)cn(C(c3ccccn3)c3ccccn3)c2c1 [P-0575, 4-[1-[bis(2-pyridyl)methyl]-3-iodo-pyrrolo[3,2-b]pyridin-6-yl]-3,5-dimethyl-isoxazole]
IC50 (BRD4-BD12 (1-477)): < 1 µM
IC50 (MV-4-11 cells; MV-4-11, 3d growth): < 1 µM
IC50 (bromodomain): < 10000 nM

Cc1noc(C)c1-c1cnc2c(-c3cnn(C(F)F)c3)cn([C@H](C)c3ccc(F)cc3)c2c1 [P-0352, 4-[3-[1-(difluoromethyl)pyrazol-4-yl]-1-[(1R)-1-(4-fluorophenyl)ethyl]pyrrolo[3,2-b]pyridin-6-yl]-3,5-dimethyl-isoxazole]
IC50 (BRD4-BD12 (1-477)): < 1 µM
IC50 (MV-4-11 cells): < 1 µM
IC50 (bromodomain): < 10000 nM

CNS(=O)(=O)c1ccc(-c2cn([C@@H](C)c3ccccn3)c3cc(-c4c(C)noc4C)cnc23)cc1 [P-0555, 4-[6-(3,5-dimethylisoxazol-4-yl)-1-[(1S)-1-(2-pyridyl)ethyl]pyrrolo[3,2-b]pyridin-3-yl]-N-methyl-benzenesulfonamide]
IC50 (BRD4-BD12 (1-477)): < 1 µM
IC50 (MV-4-11 cells; MV-4-11, 3d growth): < 1 µM
IC50 (bromodomain): < 10000 nM

Cc1cc(-c2cnc3ccn(CC4CCC(F)(F)CC4)c3c2)cnn1 [P-0286]
IC50 (BRD4-BD12 (1-477)): < 1 µM
IC50 (MV-4-11 cells): 10 to 200 µM
IC50 (bromodomain): < 10000 nM

Cc1noc(C)c1-c1cnc2c(-c3cnn(C(F)F)c3)cn(C(CC#N)C3CCCC3)c2c1 (stereo not drawn) [P-0252, 3-cyclopentyl-3-[3-[1-(difluoromethyl)pyrazol-4-yl]-6-(3,5-dimethylisoxazol-4-yl)pyrrolo[3,2-b]pyridin-1-yl]propanenitrile]
IC50 (BRD4-BD12 (1-477)): < 1 µM
IC50 (MV-4-11 cells): < 1 µM
IC50 (bromodomain): < 10000 nM

Cc1noc(C)c1-c1cnc2c(-c3cc(C(=O)O)cs3)cn(CC3CCC(F)(F)CC3)c2c1 [P-0486, 5-[1-[(4,4-difluorocyclohexyl)methyl]-6-(3,5-dimethylisoxazol-4-yl)pyrrolo[3,2-b]pyridin-3-yl]thiophene-3-carboxylic acid]
IC50 (BRD4-BD12 (1-477)): < 1 µM
IC50 (MV-4-11 cells; MV-4-11, 3d growth): < 1 µM
IC50 (bromodomain): < 10000 nM

Cc1noc(C)c1-c1cnc2c(-c3ccc(C(=O)O)cc3)cn([C@@H](c3ccccc3)c3ccccn3)c2c1 [P-0711, 4-[6-(3,5-dimethylisoxazol-4-yl)-1-[(S)-phenyl(2-pyridyl)methyl]pyrrolo[3,2-b]pyridin-3-yl]benzoic acid]
IC50 (BRD4-BD12 (1-477)): < 1 µM
IC50 (MV-4-11 cells; MV-4-11, 3d growth): < 1 µM
IC50 (bromodomain): < 10000 nM

Cc1noc(C)c1-c1cnc2c(-c3cnn(CC(F)(F)F)c3)cn(CC3CCCC3)c2c1 [P-0551, 4-[1-(cyclopentylmethyl)-3-[1-(2,2,2-trifluoroethyl)pyrazol-4-yl]pyrrolo[3,2-b]pyridin-6-yl]-3,5-dimethyl-isoxazole]
IC50 (BRD4-BD12 (1-477)): < 1 µM
IC50 (MV-4-11 cells; MV-4-11, 3d growth): < 1 µM
IC50 (bromodomain): < 10000 nM

CNC(=O)Nc1ccc(-c2cn(CC3CCC(F)(F)CC3)c3cc(-c4c(C)noc4C)cnc23)cc1 [P-0561, 1-[4-[1-[(4,4-difluorocyclohexyl)methyl]-6-(3,5-dimethylisoxazol-4-yl)pyrrolo[3,2-b]pyridin-3-yl]phenyl]-3-methyl-urea]
IC50 (BRD4-BD12 (1-477)): < 1 µM
IC50 (MV-4-11 cells; MV-4-11, 3d growth): < 1 µM
IC50 (bromodomain): < 10000 nM

CNC(=O)Nc1ccc(-c2cn(CC3(F)CCCCC3)c3cc(-c4c(C)noc4C)cnc23)cc1 [P-0522, 1-[4-[6-(3,5-dimethylisoxazol-4-yl)-1-[(1-fluorocyclohexyl)methyl]pyrrolo[3,2-b]pyridin-3-yl]phenyl]-3-methyl-urea]
IC50 (BRD4-BD12 (1-477)): < 1 µM
IC50 (MV-4-11 cells; MV-4-11, 3d growth): < 1 µM
IC50 (bromodomain): < 10000 nM

CC[C@@H](c1ccccc1)n1cc(-c2ccc(C(=O)O)cc2)c2ncc(-c3c(C)noc3C)cc21 [P-0567, 4-[6-(3,5-dimethylisoxazol-4-yl)-1-[(1S)-1-phenylpropyl]pyrrolo[3,2-b]pyridin-3-yl]benzoic acid]
IC50 (BRD4-BD12 (1-477)): < 1 µM
IC50 (MV-4-11 cells; MV-4-11, 3d growth): < 1 µM
IC50 (bromodomain): < 10000 nM

COc1cc(-c2cn(CC3CCC(F)(F)CC3)c3cc(-c4c(C)noc4C)cnc23)ccc1C(=O)O [P-0404, 4-[1-[(4,4-difluorocyclohexyl)methyl]-6-(3,5-dimethylisoxazol-4-yl)pyrrolo[3,2-b]pyridin-3-yl]-2-methoxy-benzoic acid]
IC50 (BRD4-BD12 (1-477)): < 1 µM
IC50 (MV-4-11 cells): < 1 µM
IC50 (bromodomain): < 10000 nM

Cc1noc(C)c1-c1cnc2c(-c3ccc(C(=O)O)cc3)cn([C@H](c3ccccc3)c3ccccn3)c2c1 [P-0722, 4-[6-(3,5-dimethylisoxazol-4-yl)-1-[(R)-phenyl(2-pyridyl)methyl]pyrrolo[3,2-b]pyridin-3-yl]benzoic acid]
IC50 (BRD4-BD12 (1-477)): < 1 µM
IC50 (MV-4-11 cells; MV-4-11, 3d growth): < 1 µM
IC50 (bromodomain): < 10000 nM

Cc1noc(C)c1-c1cnc2c(-c3ccc(B(O)O)cc3)cn(CC3CCC(F)(F)CC3)c2c1 [P-0596, [4-[1-[(4,4-difluorocyclohexyl)methyl]-6-(3,5-dimethylisoxazol-4-yl)pyrrolo[3,2-b]pyridin-3-yl]phenyl]boronic acid]
IC50 (BRD4-BD12 (1-477)): < 1 µM
IC50 (MV-4-11 cells; MV-4-11, 3d growth): < 1 µM
IC50 (bromodomain): < 10000 nM

Cc1noc(C)c1-c1cnc2c(-c3cccnc3)cn(CC3CCC(F)(F)CC3)c2c1 [P-0388, 4-[1-[(4,4-difluorocyclohexyl)methyl]-3-(3-pyridyl)pyrrolo[3,2-b]pyridin-6-yl]-3,5-dimethyl-isoxazole]
IC50 (BRD4-BD12 (1-477)): < 1 µM
IC50 (MV-4-11 cells): < 1 µM
IC50 (bromodomain): < 10000 nM

Cc1ccc(-c2cn(CC3(F)CCCCC3)c3cc(-c4c(C)noc4C)cnc23)cc1C(=O)O [P-0525, 5-[6-(3,5-dimethylisoxazol-4-yl)-1-[(1-fluorocyclohexyl)methyl]pyrrolo[3,2-b]pyridin-3-yl]-2-methyl-benzoic acid]
IC50 (BRD4-BD12 (1-477)): < 1 µM
IC50 (MV-4-11 cells; MV-4-11, 3d growth): < 1 µM
IC50 (bromodomain): < 10000 nM

COC(=O)c1ccc(-c2cn([C@@H](C)c3ccccn3)c3cc(-c4c(C)noc4C)cnc23)cc1 [P-0509, methyl 4-[6-(3,5-dimethylisoxazol-4-yl)-1-[(1S)-1-(2-pyridyl)ethyl]pyrrolo[3,2-b]pyridin-3-yl]benzoate]
IC50 (BRD4-BD12 (1-477)): < 1 µM
IC50 (MV-4-11 cells; MV-4-11, 3d growth): < 1 µM
IC50 (bromodomain): < 10000 nM

Cc1noc(C)c1-c1cnc2c(I)cn(CC3CCCC3)c2c1 [P-0549]
IC50 (BRD4-BD12 (1-477)): < 1 µM
IC50 (MV-4-11 cells; MV-4-11, 3d growth): < 1 µM
IC50 (bromodomain): < 10000 nM

Cc1noc(C)c1-c1cnc2c(I)cn(CC3(F)CCC(F)(F)CC3)c2c1 [P-0448, 4-[3-iodo-1-[(1,4,4-trifluorocyclohexyl)methyl]pyrrolo[3,2-b]pyridin-6-yl]-3,5-dimethyl-isoxazole]
IC50 (BRD4-BD12 (1-477)): < 1 µM
IC50 (MV-4-11 cells; MV-4-11, 3d growth): < 1 µM
IC50 (bromodomain): < 10000 nM

[2H]C([2H])(C1CC(F)(F)C1)n1cc(-c2cnn(CCF)c2)c2ncc(-c3c(C)noc3C)cc21 [P-0258, 4-[1-[dideuterio-(3,3-difluorocyclobutyl)methyl]-3-[1-(2-fluoroethyl)pyrazol-4-yl]pyrrolo[3,2-b]pyridin-6-yl]-3,5-dimethyl-isoxazole]
IC50 (BRD4-BD12 (1-477)): < 1 µM
IC50 (MV-4-11 cells): < 1 µM
IC50 (bromodomain): < 10000 nM
